Patent US20150224089A1, “COMBINATIONS OF IKKi/TBK1 INHIBITORS WITH BETA ADRENERGIC AGONISTS OR SYMPATHETIC NERVOUS SYSTEM ACTIVATORS” (THE REGENTS OF THE UNIVERSITY OF MICHIGAN, priority 2014, published 2015)

Tested on: 3T3-L1 adipocytes
Experiment: Glycerol release (lipolysis) from 3T3-L1 adipocytes
Type: cell-based
Conditions: TNFα for 24 hr, different concentrations; 10 μM ISO or 50 μM FSK
Method: (A) Fold increase in Ucp1 expression in 3T3-L1 adipocytes expressing empty vector, Flag-IKKε, or Flag-IKKε K38A following treatment with or without 10 μM ISO (black bars) or 10 μM CL-316,243 (CL, gray bars) for 4 hr. (B) Glycerol release from 3T3-L1 adipocytes expressing empty vector (white bars), Flag-IKKε (black bars), or Flag-IKKε K38A (gray bars) treated with or without 10 μM ISO or 10 μM CL. (C) Immunoblots of whole cell lysates from FIG. 1B. Results were replicated in triplicate. D.E. stands for dark exposure and L.E. stands for light exposure. (D) Immunoblots of whole cell lysates from 3T3-L1 adipocytes expressing empty vector or Flag-IKKε treated with or without 50 μM FSK for 15 min. (E) cAMP levels from 3T3-L1 adipocytes expressing empty vector, Flag-IKKε, or Flag-IKKε K38A treated with or without 10 μM ISO or 50 μM FSK for 15 min.
(A) Glycerol release from 3T3-L1 adipocytes treated with or without different concentrations of TNFα as indicated for 24 hr followed by treatment with or without 10 μM ISO or 50 μM FSK. (B) cAMP levels from 3T3-L1 adipocytes treated with or without 100 ng/ml TNFα for 24 hr followed by treatment with or without 10 μM ISO or 50 μM FSK in the presence or absence of pretreatment of 50 μM Amlexanox (Am). (C) cAMP levels from 3T3-L1 adipocytes treated with or without 100 ng/ml TNFα for 24 hr followed by treatment with or without 50 μM FSK in the presence or absence of pretreatment of 1 μM CAY10576 (CAY). (D) Immunoblots of whole cell lysates from 3T3-L1 adipocytes treated with or without different concentrations of TNFα as same as FIG. 2A for 24 hr followed by treatment with or without 10 μM ISO or 50 μM FSK. Results were replicated in multiple experiments. ‘[’ indicates total HSL. ‘n.s.’ represents non-specific band. Arrow indicates CGI-58. (E) Immunoblots of whole cell lysates from 3T3-L1 adipocytes treated with or without 50 ng/ml TNFα or 100 μg/ml poly (I:C) for 24 hr followed by treatment with or without 10 μM ISO for 15 min in the presence or absence of pretreatment with increasing concentrations (0, 10, 50, and 200 μM) of amlexanox for 30 min.
The obesity-dependent increase was modeled in the noncanonical IKKs by overexpressing IKKε in 3T3-L1 adipocytes, followed by assay of glycerol release in response to ISO or CL-316,243. […] Overexpression of TBK1 reduced phosphorylation of HSL in response to isoproterenol or the adenylyl cyclase activator, forskolin (FIG. 1). Identical results were obtained when IKKε was overexpressed in 3T3-L1 adipocytes stimulated with forskolin (FIG. 1D), as detected by western blotting with an anti-phospho-PKA substrate motif antibody. […]

TNFα
glycerol release in response to isoproterenol and forskolin: decreased glycerol release
